{"source": "patent US6761884B1", "about": "“Vectors including foreign genes and negative selective markers” (The United States of America as represented by the …, priority 1991, dated 2004)", "key": {"[1]": {"test_system": "untransduced WP4 cells", "test": "Ganciclovir killing of untransduced WP4 cells, methylene blue staining", "type": "cell-based, murine", "details": "24-well plate, ganciclovir 0.01-100 uM, stained at 5 to 7 days", "protocol": "This example employs a clone (WP4) (Asher et al., J. Inmunol, Vol. 146, pg. 3227 (1991)) of a murine tumor cell line MCA205 (Wexler et al., J. Natl. Canc. Inst., Vol. 63, pg. 1393 (1979)) for assessing the utility of the HSV-TK gene in a “suicide” system.\nTransduced “selected” cells are then plated in 24-well tissue culture plate at 1-2.5×10^4 cells per well. After 24 hrs. of culture, ganciclovir is added in concentrations ranging from 0.01-100 uM, the cells are monitored for growth and all wells are stained in methylene blue when the control wells (no ganciclovir added) are confluent (at 5 to 7 days). Complete killing of transduced selected cells is observed at concentrations from 0.1 to 1.0 uM of ganciclovir, while untransduced cells are killed at concentrations of 100 uM or greater."}, "[2]": {"test_system": "WP4 tumor cells containing the HSV-TK gene", "test": "Subcutaneous tumors from WP4 cells containing the HSV-TK gene in mice, ganciclovir treatment", "type": "in vivo, C57BL/6 or BNX mice", "protocol": "(§1) WP4 tumor cells form tumors in C57BL/6 or BNX mice when injected subcutaneously. The number of cells required for tumor formation will vary depending of the strain of mouse used. C57BL/6 mice require 5×10^6-1×10^7 cells for tumor formation in 10-14 days. BNX mice require 1-5×10^4 cells for tumor formation in 10-14 days. Tumor cells are suspended in PBS and injected subcutaneously into the hind flank in a 0.5 ml volume. Five to ten days after tumor inoculation, ganciclovir is administered intraperitoneally twice daily for 5 days. A 2-5 mg/ml solution of ganciclovir prepared in serum-free medium (RPMI 1640, DMEM, or other) is used to achieve a dose of 125-150 mg/kg. Animals are monitored and tumor measurements made twice weekly.\n(§2) At the time of ganciclovir administration, tumors are palpable, but unmeasurable. Tumors arising from untransduced WP4 cells reach a size of 2.0-2.5 cm^3 in 40-45 days with or without ganciclovir administration. Tumor cells containing the HSV-TK gene initially form palpable tumors then regress completely and become undetectable within 10-20 days after the start of ganciclovir treatment. Complete, long term tumor ablation is observed in 60-80% of mice having received selected cells plus ganciclovir therapy."}, "[3]": {"test_system": "untransduced WP4 tumor cells", "test": "Subcutaneous tumors from untransduced WP4 cells in mice, ganciclovir treatment", "type": "in vivo, C57BL/6 or BNX mice", "details": "in 40-45 days, with or without ganciclovir administration (125-150 mg/kg i.p. twice daily for 5 days)", "protocol": "as §1, §2"}}, "data": [{"smiles": "Nc1nc(O)c2ncn(COC(CO)CO)c2n1", "note": "[ganciclovir]", "values": [{"measurement": "Concentration at which untransduced cells are killed", "setting": "[1]", "value": "≥ 100", "unit": "µM"}, {"measurement": "Time after start of ganciclovir treatment by which tumors regress completely and become undetectable", "setting": "[2]; 125-150 mg/kg intraperitoneally twice daily for 5 days, started 5-10 days after tumor inoculation", "value": "10 to 20", "unit": "days"}, {"measurement": "Mice with complete, long term tumor ablation", "setting": "[2]; mice having received selected cells plus ganciclovir therapy, 125-150 mg/kg i.p. twice daily for 5 days", "value": "60-80%"}, {"measurement": "Tumor size reached by tumors arising from untransduced WP4 cells", "setting": "[3]", "value": "2.0-2.5 cm^3"}]}]}
